pEC50: −log10 of the molar value. *1 amine or outer side, *2 acyl side, *3 side chain or, on linkers, in order; H or OH if unused. Where a SMILES comes first, the peptide text is derived from it. Bridges are numbered along the chain shown (N, C = ends). [ ]: non-standard residue; d: D form. The star is where a group is joined. C20 diacid = O=C(O)CCCCCCCCCCCCCCCCCCC(=O)*; γGlu = O=C(O)[C@H](CCC(=O)[*:2])N[*:1]; Hyp = O=C(O)[C@@H]1C[C@@H](O)CN1; NMeI = CC[C@H](C)[C@H](NC)C(=O)O; Sar = CNCC(=O)O
Columns and labels:
[1] = biological target: T1, human amylin receptor 3 (hAMYR3), hCTR2 co-expressed with hRAMP3 (Homo sapiens, UniProt O60896+P30988); assay: hAMYR3 cAMP assay (AlphaScreen) in COS7 cells; type: cell-based; details: cAMP induction, COS7 cells expressing hAMYR3; Table 1; read-out: hAMYR3 EC50
T1 construct: expressed in transfected cells
T1 sequence (P30988 25-474): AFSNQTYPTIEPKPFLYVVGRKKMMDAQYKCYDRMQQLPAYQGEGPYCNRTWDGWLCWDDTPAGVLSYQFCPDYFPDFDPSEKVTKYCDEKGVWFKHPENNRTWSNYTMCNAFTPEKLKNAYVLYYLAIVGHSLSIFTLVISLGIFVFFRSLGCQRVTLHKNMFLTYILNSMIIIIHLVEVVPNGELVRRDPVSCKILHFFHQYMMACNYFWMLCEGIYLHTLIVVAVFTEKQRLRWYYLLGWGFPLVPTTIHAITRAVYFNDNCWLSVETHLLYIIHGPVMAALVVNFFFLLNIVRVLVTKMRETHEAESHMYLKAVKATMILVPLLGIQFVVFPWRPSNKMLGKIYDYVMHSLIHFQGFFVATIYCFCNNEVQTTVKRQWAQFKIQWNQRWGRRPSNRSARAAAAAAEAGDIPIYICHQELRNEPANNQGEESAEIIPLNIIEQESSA
T1 sequence (O60896 24-148 partner): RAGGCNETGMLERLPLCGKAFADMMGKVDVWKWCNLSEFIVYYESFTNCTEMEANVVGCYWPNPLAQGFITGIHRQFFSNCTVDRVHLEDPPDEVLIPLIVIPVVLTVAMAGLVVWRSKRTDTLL
Text: The cell line COS7, originating from African Green Monkey kidney fibroblast cells, was used for establishment of the stable cell lines described below. The COS7 cellular background was used due to it being RAMP naïve, and as such it provides the best available system for testing of the monomeric hCTR and different heterodimeric amylin receptor subtypes functionally generated by introduction of the individual RAMPs.
A cell line expressing the human amylin receptor 3 (hAMYR3) was generated in the COS7 cellular background as stable clones. In brief, hCTR2 (GI:4502547) and hRAMP3 (GI:118572586) were amplified by PCR using primers encoding terminal restriction sites for subcloning. The 5′-end primers additionally encoded a near Kozak consensus sequence to ensure efficient translation. The fidelity of the DNA encoding the receptor was confirmed by DNA sequencing. The PCR products encoding the receptor were subcloned into a proprietary tri-cistronic mammalian expression vector with RAMP3, hCTR2 and neomycin (G418) resistance marker. The mammalian expression vector encoding the receptor was transfected into COS7 cells by a standard liposome transfection method. 48 hours post-transfection, cells were seeded for limited dilution cloning and selected with 1 mg/ml G418 in the culture medium. After 3 weeks, surviving colonies of hAMY3R-expressing cells were picked, propagated and tested in the amylin efficacy assay as described in Example 3 below. The functional generation of the amylin receptor phenotype was verified in the efficacy assay by a left-shifted efficacy response to amylin relative to monomeric calcitonin receptor, and one hAMYR3-expressing clone was chosen for compound profiling.
In vitro activity of test peptides at the hCTR2 and hAMYR3 receptors was assessed by measuring the induction of cAMP following stimulation of the receptor using the AlphaScreen® cAMP Assay kit from Perkin-Elmer.
Briefly, COS7 cells expressing hCTR2 (see Example 2, above) were seeded at 30-40,000 cells per well in 96-well microtiter plates coated with 0.01% poly-L-lysine, and grown for 1 day in culture in 100 μl growth medium [DMEM, 10% FCS, Penicillin (100 IU/ml), Streptomycin (100 μg/ml)]. On the day of analysis, growth medium was removed and the cells were washed once with 200 μl Tyrode buffer [Tyrode's Salts (9.6 g/I), 10 mM HEPES, pH 7.4]. Cells were incubated in 100 μl Tyrode buffer containing increasing concentrations of test peptides, 100 µM IBMX and 0.1% casein for 15 min at 37° C. The reaction was stopped by carefully decanting off the compound/buffer medium and replacing it with lysis/detection buffer (80 μl 0.1% w/v BSA, 5 mM HEPES, 0.3% v/v Tween-20 in deionized water). After incubation at room temperature for 10 min., the cAMP content of the resulting cell lysate was estimated according to the AlphaScreen® cAMP Assay manufacturer's instructions. EC50 values were estimated by computer-aided curve fitting using the 4-parameter logistic (4PL) non-linear model.

[2] = biological target: T2, human calcitonin receptor (hCTR2) (Homo sapiens, UniProt P30988); assay: hCTR2 cAMP assay (AlphaScreen) in COS7 cells; type: cell-based; details: cAMP induction, COS7 cells expressing hCTR2; Table 1; read-out: hCTR2 EC50
T2 construct: expressed in transfected cells
T2 sequence (P30988 25-474): T1 sequence (P30988 25-474)
How it was run: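 Stable hCTR2 clone in RAMP-naïve COS7 cells stimulated 15 min at 37 °C with increasing peptide concentrations in Tyrode buffer pH 7.4 containing IBMX and 0.1% casein. cAMP in lysates measured by AlphaScreen; EC50 from 4-parameter logistic fit.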

[3] = Assessment of physical stability (Thioflavin T fibrillation); type: physicochemical; set-up: key: FND = fibrillation not detected; FD = fibrillation detected; details: 1 mg/ml, 40° C., ThT
How it was run: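 1 mg/ml peptide with 40 μM ThT in 50 mM phosphate pH 7.0, 50 mM histidine pH 7.0 or 50 mM acetate pH 4.0, in triplicate. Fluorescence read every 10 min after 300 s agitation over 96 h at 40 °C. Lag-time (h) is the intersection of linear fits to stable and growth phases.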

[4] = Assessment of chemical stability (RP-HPLC normalized purity); type: physicochemical; details: 7 days, 40° C., Table 1
How it was run: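 Peptides at 0.2 mg/ml in water adjusted to pH 4, 6, 7.5 or 9, incubated at 40° C for 7 days. Main-peak area-% by RP-HPLC (C8 ammonium formate or C18 TFA gradient, UV 220 nm), normalized to T=0 as 100.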

| SMILES | pEC50 [1] | pEC50 [2] | Fibrillation pH 4.0 (Ac) ([3]; 50 mM acetate buffer pH 4.0, 96 hours) | Fibrillation pH 7.0 (His) ([3]; 50 mM histidine buffer pH 7.0, 96 hours) | Fibrillation pH 7.0 (Phos.) ([3]; 50 mM phosphate buffer pH 7.0, 96 hours) | Normalized purity after 7 days, 40° C., pH 4 ([4]; pH 4, 0.2 mg/ml) | Normalized purity after 7 days, 40° C., pH 6 ([4]; pH 6, 0.2 mg/ml) | Normalized purity after 7 days, 40° C., pH 7.5 ([4]; pH 7.5, 0.2 mg/ml) | Normalized purity after 7 days, 40° C., pH 9 ([4]; pH 9, 0.2 mg/ml) |
| --- | --- | --- | --- | --- | --- | --- | --- | --- | --- |
| CC[C@H](C)[C@@H](C(=O)N[C@@H](CC(C)C)C(=O)N[C@@H](CO)C(=O)N[C@@H](CO)C(=O)N[C@H](C(=O)N[C@@H](CCC(=O)O)C(=O)N[C@H](C(=O)NCC(=O)N[C@@H](CO)C(=O)N[C@@H](CCC(=O)O)C(=O)N[C@H](C(=O)N1CCC[C@H]1C(N)=O)[C@@H](C)O)C(C)C)[C@@H](C)O)N(C)C(=O)[C@H](C)NC(=O)CN(C)C(=O)[C@H](Cc1ccccc1)NC(=O)[C@H](CO)NC(=O)[C@H](CO)NC(=O)[C@H](CCCNC(=N)N)NC(=O)[C@@H](NC(=O)[C@H](CC(C)C)NC(=O)[C@H](Cc1ccccc1)NC(=O)[C@H](Cc1c[nH]cn1)NC(=O)[C@H](C)NC(=O)[C@H](CC(C)C)NC(=O)[C@H](CCCNC(=N)N)NC(=O)[C@H](CCC(N)=O)NC(=O)[C@@H](NC(=O)[C@H](C)NC(=O)[C@@H]1CSSC[C@H](NC(=O)[C@H](CCCNC(=N)N)NC(=O)CC[C@H](NC(=O)CCCCCCCCCCCCCCCCCCC(=O)O)C(=O)O)C(=O)N[C@@H](CC(N)=O)C(=O)N[C@@H]([C@@H](C)O)C(=O)N[C@@H](C)C(=O)N[C@@H]([C@@H](C)O)C(=O)N1)[C@@H](C)O)C(C)C [Compound 24, [19CD]-isoGlu-R-C( )-NTAT-C( )-ATQRLAHFLVRSSF-Gly(Me)-A-Ile(Me)-LSSTEVGSETP-NH2] ({C20 diacid-γGlu}-RCNTATCATQRLAHFLVRSSF[Sar]A[NMeI]LSSTEVGSETP-NH2; disulfide 2-7) | 9.72 | 10.07 |  |  |  |  |  |  |  |
| CC[C@H](C)[C@@H](C(=O)N[C@@H](CC(C)C)C(=O)N[C@@H](CO)C(=O)N[C@@H](CO)C(=O)N[C@H](C(=O)N[C@@H](CCC(=O)O)C(=O)N[C@H](C(=O)NCC(=O)N[C@@H](CO)C(=O)N[C@@H](Cc1ccccc1)C(=O)N[C@H](C(=O)N1C[C@H](O)C[C@H]1C(N)=O)[C@@H](C)O)C(C)C)[C@@H](C)O)N(C)C(=O)[C@H](C)NC(=O)CN(C)C(=O)[C@H](Cc1ccccc1)NC(=O)[C@H](CO)NC(=O)[C@H](CO)NC(=O)[C@H](CCCNC(=N)N)NC(=O)[C@H](CC(N)=O)NC(=O)[C@H](CC(C)C)NC(=O)[C@H](Cc1ccccc1)NC(=O)[C@H](Cc1c[nH]cn1)NC(=O)[C@H](C)NC(=O)[C@H](CC(C)C)NC(=O)[C@H](CCCNC(=N)N)NC(=O)[C@H](CCC(=O)O)NC(=O)[C@@H](NC(=O)[C@H](C)NC(=O)[C@@H]1CSSC[C@H](NC(=O)[C@H](CCCNC(=N)N)NC(=O)CC[C@H](NC(=O)CCCCCCCCCCCCCCCCCCC(=O)O)C(=O)O)C(=O)NCC(=O)N[C@@H]([C@@H](C)O)C(=O)N[C@@H](C)C(=O)N[C@@H]([C@@H](C)O)C(=O)N1)[C@@H](C)O [Compound 33, [19CD]-isoGlu-R-C( )-GTAT-C( )-ATERLAHFLNRSSF-Gly(Me)-A-Ile(Me)-LSSTEVGSFT-Hyp-NH2] ({C20 diacid-γGlu}-RCGTATCATERLAHFLNRSSF[Sar]A[NMeI]LSSTEVGSFT[Hyp]-NH2; disulfide 2-7) | 9.82 | 9.96 |  |  |  |  |  |  |  |
| CC[C@H](C)[C@@H](C(=O)N[C@@H](CC(C)C)C(=O)N[C@@H](CO)C(=O)N[C@@H](CO)C(=O)N[C@H](C(=O)N[C@@H](CCC(=O)O)C(=O)N[C@H](C(=O)NCC(=O)N[C@@H](CO)C(=O)N[C@@H](CO)C(=O)N[C@H](C(=O)N1CCC[C@H]1C(N)=O)[C@@H](C)O)C(C)C)[C@@H](C)O)N(C)C(=O)[C@H](C)NC(=O)CN(C)C(=O)[C@H](Cc1ccccc1)NC(=O)[C@H](CO)NC(=O)[C@H](CO)NC(=O)[C@H](CCCNC(=N)N)NC(=O)[C@H](Cc1c[nH]cn1)NC(=O)[C@H](CC(C)C)NC(=O)[C@H](Cc1ccccc1)NC(=O)[C@H](Cc1c[nH]cn1)NC(=O)[C@H](C)NC(=O)[C@H](CC(C)C)NC(=O)[C@H](CCCNC(=N)N)NC(=O)[C@H](CCC(=O)O)NC(=O)[C@@H](NC(=O)[C@H](C)NC(=O)[C@@H]1CSSC[C@H](NC(=O)[C@H](CCCNC(=N)N)NC(=O)CC[C@H](NC(=O)CCCCCCCCCCCCCCCCCCC(=O)O)C(=O)O)C(=O)NCC(=O)N[C@@H]([C@@H](C)O)C(=O)N[C@@H](C)C(=O)N[C@@H]([C@@H](C)O)C(=O)N1)[C@@H](C)O [Compound 37, [19CD]-isoGlu-R-C( )-GTAT-C( )-ATERLAHFLHRSSF-Gly(Me)-A-Ile(Me)-LSSTEVGSSTP-NH2] ({C20 diacid-γGlu}-RCGTATCATERLAHFLHRSSF[Sar]A[NMeI]LSSTEVGSSTP-NH2; disulfide 2-7) | 10.15 | 10.40 |  |  |  |  |  |  |  |
| CC[C@H](C)[C@@H](C(=O)N[C@@H](CC(C)C)C(=O)N[C@@H](CO)C(=O)N[C@@H](CO)C(=O)N[C@H](C(=O)N[C@@H](CCC(=O)O)C(=O)N[C@H](C(=O)NCC(=O)N[C@@H](CO)C(=O)N[C@H](C(=O)N[C@H](C(=O)N1C[C@H](O)C[C@H]1C(N)=O)[C@@H](C)O)[C@@H](C)O)C(C)C)[C@@H](C)O)N(C)C(=O)[C@H](C)NC(=O)CN(C)C(=O)[C@H](Cc1ccccc1)NC(=O)[C@H](CO)NC(=O)[C@H](CO)NC(=O)[C@H](CCCNC(=N)N)NC(=O)[C@@H](NC(=O)[C@H](CC(C)C)NC(=O)[C@H](Cc1ccccc1)NC(=O)[C@H](Cc1c[nH]cn1)NC(=O)[C@H](C)NC(=O)[C@H](CC(C)C)NC(=O)[C@H](CCCNC(=N)N)NC(=O)[C@H](CCC(=O)O)NC(=O)[C@@H](NC(=O)[C@H](C)NC(=O)[C@@H]1CSSC[C@H](NC(=O)[C@H](CCCNC(=N)N)NC(=O)CC[C@H](NC(=O)CCCCCCCCCCCCCCCCCCC(=O)O)C(=O)O)C(=O)NCC(=O)N[C@@H]([C@@H](C)O)C(=O)N[C@@H](C)C(=O)N[C@@H]([C@@H](C)O)C(=O)N1)[C@@H](C)O)[C@@H](C)O [Compound 48, [19CD]-isoGlu-R-C( )-GTAT-C( )-ATERLAHFLTRSSF-Gly(Me)-A-Ile(Me)-LSSTEVGSTT-Hyp-NH2] ({C20 diacid-γGlu}-RCGTATCATERLAHFLTRSSF[Sar]A[NMeI]LSSTEVGSTT[Hyp]-NH2; disulfide 2-7) | 9.59 |  | FND | FND | FND | A (A = >90%) | A (A = >90%) | A (A = >90%) | A (A = >90%) |

Source: patent US20210115104A1, “AMYLIN ANALOGUES” (Zealand Pharma A/S, priority 2015, published 2021)
